In brackets after ≈: the same amount, converted by molar mass. Like-named read-outs stand apart in the source and are kept apart here.
Key:
[1] = system: Candida spp.; conditions: previous animal models of systemic Candida spp. infection; cited from earlier work
[2] = system: Candida auris; conditions: 100 isolates of Candida auris; cited from earlier work
[3] = in vivo; parameters: species or system Guinea pigs; conditions: guinea pig, po, 10 mg/kg
Description: (§1) Guinea pigs (n=5 per group) were randomized to receive 10 or 20 or 30 mg/kg of ibrexafungerp twice daily (BID) by gavage, or vehicle control. Animals received a single dose of prednisolone at 30 mg/kg, subcutaneously, one day prior and one and three days post infection to favor immuno-compromise of the animals and facilitate the development of Candida auris skin infection. A 100 μl cell suspension containing 10^8 blastospores of Candida auris was applied to an abraded area on the back of the animals. At Day 7, tissue biopsies were examined histologically, and tissue fungal burden was analyzed by colony counts from skin samples. PK bioanalysis of ibrexafungerp plasma concentrations was conducted following the final dose (Day 7).

[4] = system: Candida auris; assay: MIC50 against 102 Candida auris clinical and surveillance isolates from an outbreak in New York; assay type: cell-based; conditions: 97 isolates with variable or multidrug resistance; for MIC50: Candidozyma auris
Text: Low MIC50 values for ibrexafungerp were found for 102 Candida auris clinical and surveillance isolates from an outbreak in New York. The isolates included C. auris with a variable resistance to antifungal drugs (resistance to one drug in one or two classes of antifungal drugs), multidrug-resistant isolates (resistance to two or more drugs between two classes of antifungal drugs), and pan-resistant isolates (resistance to two or more azoles, all tested echinocandins, and amphotericin B). For the 97 isolates that had variable or multidrug resistance to the other tested antifungal drugs (including fluconazole, voriconazole, itraconazole, isavuconazole, posaconazole, anidulafungin, caspofungin, micafungin, amphotericin B, and flucytosine), the ibrexafungerp MIC50 range was 0.06-0.5 μg/ml; the median and mode for ibrexafungerp MIC50 were each 0.5 μg/ml.

[5] = clinical; parameters: species or system humans; conditions: human, in vivo, po
Text: Print 2019 February PMID: 30478166). Such features are important for the treatment and prevention of fungal infections, as well as for achieving decolonization of susceptible fungal pathogens such as Candida auris.

[6] = system: Candida auris; assay: Guinea pig model of Candida auris skin infection, skin burden; assay type: in vivo, Guinea pigs
Description: as §1

In the case of `CC(C)[C@@H](C)[C@@]1(C)CC[C@]2(C)[C@H]3CC[C@@H]4[C@@]5(COC[C@@]4(C)[C@@H](OC[C@](C)(N)C(C)(C)C)[C@H](n4ncnc4-c4ccncc4)C5)C3=CC[C@@]2(C)[C@@H]1C(=O)O` [ibrexafungerp, (1S,4aR,6aS,7R,8R,10aR,10bR,12aR,14R,15R)-15-[[(2R)-2-amino-2,3,3-trimethylbutyl]oxy]-8-[(1R)-1,2-dimethylpropyl]-14[5-(4-pyridinyl)-1H-1,2,4-triazol-1-yl]-1,6,6a,7,8,9,10,10a,10b,11,12,12a-dodecahydro-1,6a,8,10a-tetramethyl-4H-1,4a-propano-2H-phenanthro[1,2-c]pyran-7-carboxylic acid], the “exposures needed to achieve efficacy” value [1] is given as roughly 11.2 µg·h/mL, the MIC50 [2] is given as 0.5 micrograms/ml and the MIC90 [2] is given as 1 micrograms/ml. For the same compound, the MIC overall mode [2] was 1 micrograms/ml, the AUC(0-t) [3] was 2800 ng·h/mL and the MIC50 range [4] was 0.06 to 0.5 µg/mL. The MIC50 ([4]; read-out: MIC50 median) was 0.5 µg/mL (≈ 0.685 µM), the MIC50 ([4]; read-out: MIC50 mode) was 0.5 µg/mL (≈ 0.685 µM) and the bioavailability [5] was greater than 20%. For the same compound, the “Tissue burdens of Candida auris (skin, colony counts)” value ([6]; 10, 20 or 30 mg/kg BID by gavage, Day 7, versus vehicle control) was “lower in all treatment groups versus in the vehicle control group”, the “fungal elements in biopsy samples (histology)” value ([6]; Day 7 tissue biopsies, versus untreated control) was “No fungal elements were observed” and the “clinical scores (crusting, inflammation)” value ([6]; among the active treatment groups) was “no significant differences”.

— US20220211684A1, “ANTIFUNGAL AGENTS FOR CANDIDA AURIS DECOLONIZATION” (Scynexis, Inc., priority 2019, published 2022)
